Broadly, the surface tension liquid-gas is the work needed to enlarge the surface of a liquid by unit area. The term mass density denotes mass per unit of volume.

Data on 2 compounds can be found in the NIST ThermoML archive (doi:10.1016/j.jct.2010.08.002).

± gives the expanded uncertainty stated by the source.

For the data set the following is noted: for mass density: Liquid.

For `COP(=O)([O-])OC.Cn1cc[n+](C)c1` [1,3-dimethylimidazolium dimethylphosphate], the surface tension liquid-gas by setting is: (293.15 K) 47.42 ± 1.6 mN/m; (298.15 K) 47.09 ± 1.6 mN/m; (303.15 K) 47.11 ± 1.6 mN/m; (308.15 K) 46.28 ± 1.6 mN/m; (313.15 K) 45.11 ± 1.6 mN/m; (318.15 K) 44.44 ± 1.6 mN/m. For the same compound, the surface tension liquid-gas runs as follows: (323.15 K) 43.01 ± 1.5 mN/m; (328.15 K) 42.58 ± 1.5 mN/m; (333.15 K) 41.88 ± 1.5 mN/m; (338.15 K) 41.33 ± 1.4 mN/m. Besides, the mass density worked out at 1244 ± 5.7 kg/m3 (293.15 K); 1242 ± 5.7 kg/m3 (298.15 K); 1238.7 ± 5.6 kg/m3 (303.15 K); 1234.9 ± 5.5 kg/m3 (308.15 K); 1229.7 ± 5.5 kg/m3 (313.15 K); 1226.8 ± 5.4 kg/m3 (318.15 K). Besides, the mass density amounted to 1223.9 ± 5.4 kg/m3 (323.15 K), 1218.5 ± 5.3 kg/m3 (328.15 K), 1214.8 ± 5.2 kg/m3 (333.15 K) and 1210.4 ± 5.1 kg/m3 (338.15 K).
On to `CCOP(=O)([O-])OCC.CCn1cc[n+](C)c1` [1-ethyl-3-methylimidazolium diethyl phosphate], for which the surface tension liquid-gas by setting is: (293.15 K) 36.1 ± 1.3 mN/m; (298.15 K) 35.88 ± 1.3 mN/m; (303.15 K) 35.43 ± 1.3 mN/m; (308.15 K) 35.3 ± 1.3 mN/m; (313.15 K) 35.07 ± 1.3 mN/m; (318.15 K) 34.61 ± 1.2 mN/m. The surface tension liquid-gas runs as follows: (323.15 K) 34.55 ± 1.2 mN/m; (328.15 K) 34.21 ± 1.2 mN/m; (333.15 K) 33.88 ± 1.2 mN/m; (338.15 K) 33.75 ± 1.2 mN/m. In addition, the mass density (293.15 K) was determined as 1141.3 ± 3.9 kg/m3; the mass density (298.15 K) was determined as 1140 ± 3.9 kg/m3; the mass density (303.15 K) is reported as 1132.1 ± 3.8 kg/m3; the mass density (308.15 K) is given as 1129.7 ± 3.7 kg/m3; the mass density (313.15 K) is 1125.1 ± 3.7 kg/m3; the mass density (318.15 K) is 1120.4 ± 3.6 kg/m3. For the same compound, the mass density is 1118 ± 3.5 kg/m3 (323.15 K), 1112.9 ± 3.5 kg/m3 (328.15 K), 1111.1 ± 3.4 kg/m3 (333.15 K) and 1108 ± 3 kg/m3 (338.15 K).
